Laboratory results reported in ChEMBL document CHEMBL5674870, “Uropathogenic E. coli (UPEC) Infection Induces Proliferation through Enhancer of Zeste Homologue 2 (EZH2)” (PLoS One, 2016).
Active and inactive are the calls of the source. The calls are words filed in the database; no cut-off is given here.

Key:
[1] = Inhibition of KDM6A/6B in human HT-5637 cells assessed as increase in uropathogenic Escherichia coli infection-induced WNT3A mRNA level by qRT-PCR analysis; format: toxicity, cell-based
[2] = Inhibition of KDM6A/6B in human HT-5637 cells assessed as increase in uropathogenic Escherichia coli infection-induced host cell proliferation at 100 nM measured 24 to 72 hrs after infection by immunofluorescence analysis; format: toxicity, cell-based; settings: human, 5637, 0.1 µM, time 24-72 hrs
[3] = target: Histone-lysine N-methyltransferase EZH2 (Homo sapiens) (UniProt Q15910); experiment: Inhibition of EZH2 in human HT-5637 cells assessed as decrease in uropathogenic Escherichia coli infection-induced WNT3A mRNA level by qRT-PCR analysis; format: cell-based
Histone-lysine N-methyltransferase EZH2 (Homo sapiens), sequence (Q15910 whole entry, looked up): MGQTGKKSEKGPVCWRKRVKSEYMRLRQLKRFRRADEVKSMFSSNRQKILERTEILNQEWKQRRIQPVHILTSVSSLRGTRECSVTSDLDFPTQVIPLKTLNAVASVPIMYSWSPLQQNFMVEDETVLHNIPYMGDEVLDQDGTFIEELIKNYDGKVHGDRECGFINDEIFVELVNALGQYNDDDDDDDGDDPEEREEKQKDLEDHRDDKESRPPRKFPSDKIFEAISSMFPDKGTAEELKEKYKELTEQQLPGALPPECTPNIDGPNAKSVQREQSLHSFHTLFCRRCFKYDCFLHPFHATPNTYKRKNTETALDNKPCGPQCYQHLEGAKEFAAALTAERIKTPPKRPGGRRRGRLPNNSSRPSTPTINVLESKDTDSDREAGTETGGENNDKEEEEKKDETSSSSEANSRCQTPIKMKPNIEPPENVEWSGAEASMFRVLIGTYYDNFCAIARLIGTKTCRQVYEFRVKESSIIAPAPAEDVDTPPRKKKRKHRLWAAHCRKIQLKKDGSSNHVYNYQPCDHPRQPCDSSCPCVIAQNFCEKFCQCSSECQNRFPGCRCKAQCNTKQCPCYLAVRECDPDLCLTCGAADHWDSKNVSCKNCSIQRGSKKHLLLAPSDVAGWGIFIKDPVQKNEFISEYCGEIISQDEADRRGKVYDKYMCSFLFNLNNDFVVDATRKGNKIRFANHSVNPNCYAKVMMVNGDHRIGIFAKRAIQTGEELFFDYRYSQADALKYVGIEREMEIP

[4] = target: Histone-lysine N-methyltransferase EZH2 (Homo sapiens) (UniProt Q15910); experiment: Inhibition of EZH2 in human HT-5637 cells assessed as decrease in uropathogenic Escherichia coli infection-induced host cell proliferation at 500 nM measured 24 to 72 hrs after infection by immunofluorescence analysis; format: cell-based; settings: time 24-72 hrs

| Structure (SMILES) | inhibition (INH) [1] | inhibition (INH) [2] | inhibition [3] | inhibition [4] |
| --- | --- | --- | --- | --- |
| CCOC(=O)CCNc1cc(N2CCc3ccccc3CC2)nc(-c2ccccn2)n1 | Active | Active | – | – |
| CCCc1cc(C)[nH]c(=O)c1CNC(=O)c1cc(-c2ccc(N3CCN(C(C)C)CC3)nc2)cc2c1cnn2C(C)C | – | – | Active | Active |
